Experimental data taken from ChEMBL document CHEMBL6120947, “Synthesis and Antiosteoporotic Characterization of Diselenyl Maleimides: Discovery of a Potent Agent for the Treatment of Osteoporosis by Targeting RANKL” (J Med Chem, 2024).
Activity calls are given as the source filed them. The rule behind the calls is not given here.

Experiments:
RAW264.7 [1] = test: Inhibition of osteoclastogenesis in RANKL-induced osteoclast differentiation in mouse RAW264.7 cells incubated for 4 days by TRAP staining based analysis; assay type: functional, cell-based; conditions: time 4.0 day
RAW264.7 [2] = test: Cytotoxicity against mouse RAW264.7 cells assessed as decrease in cell viability at 1 uM incubated for 48 hrs by MTT assay; assay type: toxicity, cell-based; conditions: raw264.7, 48 h

Row | SMILES | inhibition (RAW264.7 [1]) | Activity (RAW264.7 [2])
1 | O=C1C([Se]c2ccccc2)=C([Se]c2ccccc2)C(=O)N1Cc1ccc(F)cc1 | inactive | 
2 | COc1ncccc1[Se]C1=C([Se]c2cccnc2OC)C(=O)N(c2ccccc2)C1=O | inactive | Toxic
3 | O=C1C([Se]c2cccc(F)c2)=C([Se]c2cccc(F)c2)C(=O)N1Cc1ccccc1 | inactive | 
4 | Cc1ccccc1[Se]C1=C([Se]c2ccccc2C)C(=O)N(Cc2ccccc2)C1=O | inactive | 
5 | O=C1C([Se]c2ccccc2)=C([Se]c2ccccc2)C(=O)N1c1c(Cl)cc(Cl)cc1Cl | inactive | 
6 | O=C1C([Se]c2ccccc2)=C([Se]c2ccccc2)C(=O)N1Cc1cccc(F)c1 | inactive | 
7 | N#Cc1ccc([Se]C2=C([Se]c3ccc(C#N)cc3)C(=O)N(Cc3ccccc3)C2=O)cc1 | inactive | 
8 | C[Se]C1=C([Se]C)C(=O)N(Cc2ccccc2)C1=O | inactive | 
9 | O=C1C([Se]c2ccccc2)=C([Se]c2ccccc2)C(=O)N1Cc1cccc(Cl)c1 | inactive | Toxic
10 | Cc1cccc(CN2C(=O)C([Se]c3ccccc3)=C([Se]c3ccccc3)C2=O)c1 | inactive | Toxic
11 | N#Cc1ccc(CN2C(=O)C([Se]c3ccccc3)=C([Se]c3ccccc3)C2=O)cc1 | inactive | 
12 | Cc1cccc([Se]C2=C([Se]c3cccc(C)c3)C(=O)N(Cc3ccccc3)C2=O)c1 | inactive | 
13 | N#Cc1cccc([Se]C2=C([Se]c3cccc(C#N)c3)C(=O)N(c3ccccc3)C2=O)c1 | inactive | Toxic
14 | O=C1C([Se]c2ccc(Br)cc2)=C([Se]c2ccc(Br)cc2)C(=O)N1c1ccccc1 | inactive | Toxic
15 | O=C1C([Se]c2ccccc2)=C([Se]c2ccccc2)C(=O)N1C1CCCCC1 | inactive | 
16 | Cc1ccc([Se]C2=C([Se]c3ccc(C)cc3)C(=O)N(c3ccccc3)C2=O)cc1 | Active | Toxic
17 | O=C1C=C([Se]c2ccccc2)C(=O)N1Cc1ccccc1 | inactive | 
18 | CN1C(=O)C([Se]c2ccccc2)=C([Se]c2ccccc2)C1=O | inactive | 
19 | COc1ccccc1[Se]C1=C([Se]c2ccccc2OC)C(=O)N(Cc2ccccc2)C1=O | inactive | 
20 | Cc1ccccc1CN1C(=O)C([Se]c2ccccc2)=C([Se]c2ccccc2)C1=O | inactive | 
21 | O=C1C=CC(=O)N1Cc1ccccc1 | inactive | 
22 | O=C1C([Se]c2cccc(Br)c2)=C([Se]c2cccc(Br)c2)C(=O)N1Cc1ccccc1 | inactive | 
23 | O=C1C([Se]c2ccccc2)=C([Se]c2ccccc2)C(=O)N1c1ccccc1 | inactive | 
24 | O=C1C([Se]c2ccccc2)=C([Se]c2ccccc2)C(=O)N1Cc1ccccc1Br | inactive | Toxic

Row | SMILES | inhibition (RAW264.7 [1]) | Activity (RAW264.7 [2])
25 | O=C1C([Se]c2ccccc2)=C([Se]c2ccccc2)C(=O)N1Cc1ccc(Cl)cc1 | inactive | 
26 | O=C1C([Se]c2ccccc2Br)=C([Se]c2ccccc2Br)C(=O)N1c1ccccc1 | inactive | Toxic
27 | CC(C)(C)N1C(=O)C([Se]c2ccccc2)=C([Se]c2ccccc2)C1=O | inactive | 
28 | CCC[Se]C1=C([Se]CCC)C(=O)N(c2ccccc2)C1=O | inactive | 
29 | COc1ccc(CN2C(=O)C([Se]c3ccccc3)=C([Se]c3ccccc3)C2=O)cc1 | inactive | 
30 | O=C1C([Se]c2ccc(Cl)cc2)=C([Se]c2ccc(Cl)cc2)C(=O)N1Cc1ccccc1 | inactive | 
31 | O=C1C([Se]c2ccccc2Cl)=C([Se]c2ccccc2Cl)C(=O)N1c1ccccc1 | Active | 
32 | O=C1C([Se]c2cccc([N+](=O)[O-])c2)=C([Se]c2cccc([N+](=O)[O-])c2)C(=O)N1Cc1ccccc1 | inactive | 
33 | O=C1C([Se]c2ccccc2Cl)=C([Se]c2ccccc2Cl)C(=O)N1Cc1ccccc1 | inactive | 
34 | Cc1ccc(CN2C(=O)C([Se]c3ccccc3)=C([Se]c3ccccc3)C2=O)cc1 | inactive | Toxic
35 | O=C1C(Sc2ccccc2)=C(Sc2ccccc2)C(=O)N1Cc1ccccc1 | inactive | 
36 | CC(=O)c1ccc(N2C(=O)C([Se]c3ccccc3)=C([Se]c3ccccc3)C2=O)cc1 | Active | 
37 | CCN1C(=O)C([Se]c2ccccc2)=C([Se]c2ccccc2)C1=O | inactive | 
38 | Cc1cccc([Se]C2=C([Se]c3cccc(C)c3)C(=O)N(c3ccccc3)C2=O)c1 | Active | 
39 | COc1ccc([Se]C2=C([Se]c3ccc(OC)cc3)C(=O)N(Cc3ccccc3)C2=O)cc1 | inactive | 
40 | O=C1C([Se]c2ccccc2)=C([Se]c2ccccc2)C(=O)N1c1ccc(Br)cc1 | inactive | 
41 | O=C1C([Se]c2ccccc2)=C([Se]c2ccccc2)C(=O)N1Cc1ccccc1Cl | inactive | 
42 | CC[Se]C1=C([Se]CC)C(=O)N(c2ccccc2)C1=O | inactive | 
43 | CCc1ccc(N2C(=O)C([Se]c3ccccc3)=C([Se]c3ccccc3)C2=O)cc1 | Active | Toxic
44 | O=C1NC(=O)C([Se]c2ccccc2)=C1[Se]c1ccccc1 | Active | 
45 | O=C1C([Se]c2ccccc2)=C([Se]c2ccccc2)C(=O)N1Cc1ccc(I)cc1 | inactive | 
46 | O=C1C([Se]c2cccc(Cl)c2)=C([Se]c2cccc(Cl)c2)C(=O)N1Cc1ccccc1 | inactive | 
47 | COC(=O)CCN1C(=O)C([Se]c2ccccc2)=C([Se]c2ccccc2)C1=O | inactive | 
48 | O=C1C([Se]c2ccccc2)=C([Se]c2ccccc2)C(=O)N1Cc1cccc(Br)c1 | inactive | 
